Measured values taken from patent US9261498B2, “Biomarker for sensitivity to mTOR inhibitor therapy in kidney cancer” (The Regents of the University of California, priority 2005, dated 2016).

Tested on: VEGF
Assay: VEGF ELISA of conditioned media
Assay type: cell-based, human
Details: VHL knockdown cells, 10 nM CCI-779, 36 hours, normalized to total cellular protein
Procedure: FIGS. 2A-2C. Effects of VHL knockdown on angiogenesis. (a) Microvessel density was quantified by CD-31 immunolabeling (arrows) in the xenograft tumors, and difference between CCI-779 treated (+) and vehicle (−) treated mice quantified (n=6 in each group). P<0.0033 for microvessel density counts in VHL shRNA compared to vector only (see blue bars). (b) Similar number of cells were plated and maintained in 10% serum rich media, in the presence (+) or absence (−) of 10 nM CCI-779. Thirty-six hours later, conditioned media was analyzed by anti-VEGF ELISA and cell extracts prepared for protein quantification. VEGF values were normalized to total cellular protein. Error bars equal one standard deviation (n=3). […] Bound antibody was detected using enhanced chemiluminescence (ECL, Amersham). For VEGF ELISA quantification, cells were plated in 6 well plates (1×10^5 per well). […] Thirty-six hours later, VEGF ELISA (R&D Systems) was performed according to the manufacturer's instructions, using a Fisher Plate reader. […] Bound antibody was detected using enhanced chemiluminescence (ECL, Amersham). For VEGF ELISA quantification, cells were plated in 6 well plates (1×10^5 per well). […] Thirty-six hours later, VEGF ELISA (R&D Systems) was performed according to the manufacturer's instructions, using a Fisher Plate reader. […]

Structure (SMILES): CO[C@H]1C[C@@H]2CC[C@@H](C)[C@@](O)(O2)C(=O)C(=O)N2CCCC[C@H]2C(=O)O[C@H]([C@H](C)C[C@@H]2CC[C@@H](OC(=O)C(C)(CO)CO)[C@H](OC)C2)CC(=O)[C@H](C)/C=C(\C)[C@@H](O)[C@@H](OC)C(=O)[C@H](C)C[C@H](C)/C=C/C=C/C=C/1C [CCI-779]
- reduction of secreted VEGF levels: 2 fold
